# Test results published in PMC10666768, “Optimized peptide nanofibrils as efficient transduction enhancers for in vitro and ex vivo gene transfer” (Frontiers in Immunology, 2023).
# “Also recorded” adds a separate entry of the source. Peptide text beside a SMILES is read from it.
# Columns and labels:
# [1] = test system: human T cells; details: trypan blue after 7 days
# [2] = test system: human NK cells; details: 4-day incubation, propidium iodide, three donors
# Description: NK cells were isolated from buffy coats of healthy donors by standard density-gradient centrifugation, using Ficoll-Paque (VWR, Cat: 17-1440-03) using the RosetteSep™ Human NK Cell Enrichment Cocktail ([sequence] Technologies, Cat: 15065). NK cells were cultured at 1×10^6 cells/ml in NK MACS medium (Miltenyi Biotec, Cat: 130-114-429) with 5% human AB serum (Sigma Aldrich, Cat: H4522-100ML), 500 U/ml IL-2 (Peprotech, Cat: 200-02) and 140 U/ml IL-15 (Peprotech, Cat: 200-15). […] 1.25×10^5 NK cells were seeded per well in a 48-well plate. […] Propidium Iodide (PI) (Miltenyi Biotec, Cat: 130-093-233) staining was used to determine the viability of NK cells.
# [3] = Chemical stability of PNFs by HPLC and MALDI-TOF MS; type: physicochemical; details: 2 mg/ml PNFs in PBS, RT or 37°C, 10 min, 1 h, 24 h, 10 d; reversed-phase C18 HPLC, UV 214 nm
# Description: RM-8 and D4 were prepared at 2 mg/ml in PBS and were incubated at room temperature (RT) or 37°C for 10 min, 1 hour, 24 hours, and 10 days. Aliquots (25 µL) of both samples were separated after 10 minutes, 1 hour, 24 hours, and 10 days and centrifuged at 13,000 x g for one minute. Supernatants were diluted with 100 µL 10% acetic acid, whereas the pellets were dissolved in 125 µL 6 M guanidinium chloride. All samples were analyzed in an Agilent 1100 Series HPLC system, using a reversed-phase BioBasicTM 18-HPLC column (Thermo Scientific) of dimensions 2.1 x 100 mm and particle size of 5 µm. Gradient elution was used for elution as follows (RM-8): 0 min/5%B, 1 min/20%B, and 15 min/40%B; and for D4: 0 min/5%B, 1 min/15%B, and 15 min/35/%B), being A, 0. 1% TFA in water, and B, 0.1% TFA in acetonitrile. The flow rate was 0.5 mL/min, and the detection was monitored online by UV absorption at 214 nm. ChemStation (version B.04.03, Agilent) was used for data acquisition and the HPLC system’s control.
# Mass spectra were obtained with an Axima Confidence MALDI-TOF mass spectrometer (Shimadzu). Measurements were performed in positive ion reflectron mode. The mass range was 100–10000 Da. For each sample, 20 shots were accumulated per profile (100 profiles per spectra) using a laser power of 42% and a laser frequency of 50 Hz. TOFMix MALDI kit (Shimadzu) was used for external mass calibration. […]
# [4] = test system: NF-κB pathway; experiment: THP1-Dual cells, NF-κB pathway (SEAP); type: cell-based; details: 24 h
# Description: To analyze if PNFs stimulate an immune response, different PNFs concentrations (5, 10, 30 and 50 µg/ml) and 0.1 µg/ml lipopolysaccharide (LPS, InvivoGen, Cat: tlrl-eklps) as a positive control were incubated with 70,000 THP1-Dual cells, a monocyte cell line that allows the simultaneous analysis of the NF-κB and interferon regulatory factor (IRF) pathway, which are major effectors of the innate immune response ([45]). After 24 h, cellular supernatants were analyzed for the activation of the NF-κB pathway by measuring the activity of secreted alkaline phosphatase (SEAP). Therefore, 20 µl supernatant was mixed with 120 µl Alkaline Phosphatase Blue Microwell Substrate (Sigma Aldrich, Cat: AB0100-1KT). After 10 min, 30 µl Alkaline Phosphatase Stop Solution (Sigma Aldrich, Cat: A5852) was added and adsorption at 620 nm was measured using VersaMax Microplate Reader (Molecular Devices). For analysis of IRF pathway, secreted Gaussia Luciferase was measured. 25 µl supernatant was transferred to a white 96 well microtiter plate and Gaussia substrate (82.6 µg/ml Colenterazine, PJK, Cat: 102172) was automatically added according to manufacturer’s protocol and Luminescence was measured by Orion II Microplate Luminometer (Berthold).
# [5] = test system: TZM-bl cells
# Description: To determine the effect of peptides on cellular metabolic activity, MTT (Thiazolyl blue tetrazolium bromide) Cell Growth Assay (Merck, Cat: CT02) and CellTiter-Glo Luminescent Cell Viability Assay (Promega, Cat: G7571) were performed. 10,000 TZM-bl cells or 50,000 Jurkat cells were seeded into 96-well plates and treated with indicated concentrations of peptides. For TZM-bl cells, the supernatants were removed after three days and 100 µl MTT (0.5 mg/ml) was added and incubated for 2.5 hours. For Jurkat cells, supernatants were removed after two days, and cells were incubated with 40 μl MTT (1 mg/ml) for 5 hours. Then the MTT solution was removed, and 100 µl 1:1 DMSO-Ethanol was added. The absorption was measured at 590 nm with baseline-corrected at 650 nm using VersaMax Microplate Reader (Molecular Devices). The CellTiter-Glo assay was performed according to the manufacturing protocol. 100 μl CellTiter-Glo Reagent 1:1 diluted in PBS (Gibco, 14200075) was added to pelleted Jurkat cells for 10 min followed by transferring 50 µl to white microplate, and luminescence was recorded by Orion microplate luminometer (Berthold).
# (A) TZM-bl cells were treated […]
# with different peptide concentrations. MTT assay was performed three days later. […] The cell viability in % was calculated by normalizing sample values to untreated control which was set to 100 %. […]
SMILES,T cell viability after GALV-RV transduction ([1]; four donors),NK cell viability [2],Chemical stability by HPLC [3],Activation of NF-κB pathway at 50 µg/ml [4],"Cytotoxicity, TZM-bl cells [5]","Cytotoxic effect on T cells, GALV-RV transduction ([1]; two donors)",NK cell viability at highest concentration ([2]; 30 µg/ml)
CC[C@H](C)[C@H](NC(=O)[C@H](CCCNC(=N)N)NC(=O)[C@@H](N)CCCNC(=N)N)C(=O)N[C@@H](Cc1ccccc1)C(=O)N[C@H](C(=O)N[C@H](C(=O)N[C@@H](CO)C(=O)N[C@@H](CCSC)C(=O)O)[C@@H](C)CC)[C@@H](C)CC [D4] (H-RRIFIISM-OH),neither D4 PNF nor the other transduction enhancers affected T cell viability,did not show any impact on cell viability,chemically stable for 10 days; also recorded: single peak with unchanged retention time,significant activation of the NF-kB pathway,–,–,–
CC[C@H](C)[C@H](NC(=O)[C@H](Cc1ccccc1)NC(=O)[C@@H](NC(=O)[C@@H](NC(=O)[C@@H](N)CCCNC(=N)N)[C@@H](C)O)[C@@H](C)CC)C(=O)N[C@H](C(=O)N[C@@H](CO)C(=O)N[C@@H](CCSC)C(=O)N[C@@H](Cc1ccc(O)cc1)C(=O)N[C@@H](CCCCN)C(=O)O)[C@@H](C)CC [RK-10] (H-RTIFIISMYK-OH),–,–,–,–,not being cytotoxic,–,–
CC[C@H](C)[C@H](NC(=O)[C@H](Cc1ccccc1)NC(=O)[C@@H](NC(=O)[C@@H](NC(=O)[C@@H](N)CCCNC(=N)N)[C@@H](C)O)[C@@H](C)CC)C(=O)N[C@H](C(=O)N[C@@H](CO)C(=O)N[C@@H](CCSC)C(=O)O)[C@@H](C)CC [RM-8] (H-RTIFIISM-OH),–,–,chemically stable over time; also recorded: chemically stable for 10 days,–,not being cytotoxic,not showing any cytotoxic effect,slightly reduced cell viability
